Laboratory results as given in patent US6262084A, “Compounds that inhibit the binding of integrins to their receptors” (Texas Biotechnology Corporation, priority 1999, dated 2001).

Molecular target: T1, α4β1 integrin (Homo sapiens, UniProt P05556+P13612)
T1 construct: Ramos cells fluorescently labeled with calcein; endogenous in cells; host or cells: Ramos cells
Test: Inhibition of adhesion of calcein-labeled Ramos cells to CS1 (fibronectin) peptide-conjugated ovalbumin
Format: cell-based
Details: for inhibition at 100 µM: Ramos, compound at a concentration of 100 μM, read-out: % A (percent inhibition of cell adhesion); for IC50: dose required to give 50% inhibition, Ramos cell adhesion to CS1-ovalbumin, 30 minutes at 37° C
Procedure, shortened: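 Calcein-labelled Ramos cells (2.5×10^5/well) in TBS with 1 mM MgCl2, CaCl2 and MnCl2 adhered to CS1 peptide–ovalbumin coated at 5 μg/ml for 30 min at 37 °C, with or without compound. After washing, bound cells were lysed and read by fluorescence. IC50 is the dose giving 50% inhibition, and % inhibition was measured at 100 μM.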

T1 sequence (P13612 34-1032): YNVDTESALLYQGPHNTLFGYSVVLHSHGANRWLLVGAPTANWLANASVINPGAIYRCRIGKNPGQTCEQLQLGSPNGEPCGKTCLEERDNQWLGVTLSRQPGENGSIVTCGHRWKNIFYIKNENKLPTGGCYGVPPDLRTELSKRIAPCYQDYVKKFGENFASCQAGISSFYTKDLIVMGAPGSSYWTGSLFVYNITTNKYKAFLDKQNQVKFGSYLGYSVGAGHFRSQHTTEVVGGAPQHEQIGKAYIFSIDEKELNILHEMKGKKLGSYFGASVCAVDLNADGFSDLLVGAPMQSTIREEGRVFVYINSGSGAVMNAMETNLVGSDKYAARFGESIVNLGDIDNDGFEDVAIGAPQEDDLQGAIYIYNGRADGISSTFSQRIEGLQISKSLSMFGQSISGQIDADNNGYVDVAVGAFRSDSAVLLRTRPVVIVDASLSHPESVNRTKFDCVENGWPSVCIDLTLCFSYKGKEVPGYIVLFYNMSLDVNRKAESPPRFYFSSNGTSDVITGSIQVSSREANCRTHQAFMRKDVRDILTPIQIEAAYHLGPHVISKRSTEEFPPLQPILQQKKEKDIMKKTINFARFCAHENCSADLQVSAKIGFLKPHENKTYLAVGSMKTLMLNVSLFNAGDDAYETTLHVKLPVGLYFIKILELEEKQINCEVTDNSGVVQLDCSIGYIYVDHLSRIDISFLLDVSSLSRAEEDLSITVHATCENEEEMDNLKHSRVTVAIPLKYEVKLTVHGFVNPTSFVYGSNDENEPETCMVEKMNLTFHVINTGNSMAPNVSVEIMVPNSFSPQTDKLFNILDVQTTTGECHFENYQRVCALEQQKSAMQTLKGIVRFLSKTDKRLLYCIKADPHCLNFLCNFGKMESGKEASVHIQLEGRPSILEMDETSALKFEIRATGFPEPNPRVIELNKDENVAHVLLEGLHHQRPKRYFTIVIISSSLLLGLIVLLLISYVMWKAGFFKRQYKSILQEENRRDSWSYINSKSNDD
T1 sequence (P05556 21-798): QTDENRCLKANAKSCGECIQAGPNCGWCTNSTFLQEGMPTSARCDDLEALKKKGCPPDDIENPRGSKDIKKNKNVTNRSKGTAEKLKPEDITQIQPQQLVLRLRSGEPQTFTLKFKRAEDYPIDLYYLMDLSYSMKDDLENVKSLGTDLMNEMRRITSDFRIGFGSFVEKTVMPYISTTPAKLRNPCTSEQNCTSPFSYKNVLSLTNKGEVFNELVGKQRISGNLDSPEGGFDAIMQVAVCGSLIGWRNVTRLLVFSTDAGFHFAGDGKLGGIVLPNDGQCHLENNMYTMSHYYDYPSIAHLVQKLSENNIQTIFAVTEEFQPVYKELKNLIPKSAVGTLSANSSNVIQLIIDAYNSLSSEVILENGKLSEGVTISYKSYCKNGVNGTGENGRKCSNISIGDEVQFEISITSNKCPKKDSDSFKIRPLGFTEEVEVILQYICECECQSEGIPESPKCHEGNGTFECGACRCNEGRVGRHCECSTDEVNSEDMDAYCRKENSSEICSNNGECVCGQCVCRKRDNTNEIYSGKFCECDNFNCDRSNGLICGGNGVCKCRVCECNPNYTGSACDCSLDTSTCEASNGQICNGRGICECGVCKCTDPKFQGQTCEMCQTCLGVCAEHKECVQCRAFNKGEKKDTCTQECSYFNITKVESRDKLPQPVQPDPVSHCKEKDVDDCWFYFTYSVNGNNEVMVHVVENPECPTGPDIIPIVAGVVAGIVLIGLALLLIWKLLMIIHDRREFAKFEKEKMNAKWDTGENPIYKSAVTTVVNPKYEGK

| Structure (SMILES) | inhibition at 100 µM (Table 1) | IC50 (Table 1) | IC50 (Table 2) |
| --- | --- | --- | --- |
| CSCC[C@@H](CSc1ccccc1C)NC(=O)N[C@@H](CC(=O)O)c1ccc2c(c1)OCO2 [(3S)-3-(1,3-benzodioxol-5-yl)-3-[({[(1S)-1-{[(2-methylphenyl)sulfanyl]methyl}-3-(methylsulfanyl)propyl]amino}carbonyl)amino]propanoic acid] | 100% | 300 nM | – |
| CCCSC[C@H](NC(=O)N[C@@H](CC(=O)O)c1ccc2c(c1)OCO2)c1ccccc1 [(3S)-3-(1,3-benzodioxol-5-yl)-3-[({[(1R)-1-phenyl-2-(propylthio)ethyl]amino}carbonyl)amino]propanoic acid] | 100% | 25000 nM | – |
| O=C(O)C[C@H](NC(=O)N[C@@H](CSCC1CC1)CSc1ccccc1)c1ccc2c(c1)OCO2 [(3S)-3-(1,3-benzodioxol-5-yl)-3-{[({(1S)-2-[(cyclopropylmethyl)thio]-1-[(phenylthio)methyl]ethyl}amino)carbonyl]amino}propanoic acid] | 100% | 200 nM | – |
| CCSC[C@@H](COCc1ccccc1)OC(=O)N[C@@H](CC(=O)O)c1ccc2c(c1)OCO2 [(3S)-3-(1,3-benzodioxol-5-yl)-3-{[({(1R)-2-(benzyloxy)-1-[(ethylthio)methyl]ethyl}oxy)carbonyl]amino}propanoic acid] | 100% | 12000 nM | – |
| O=C(O)C[C@H](NC(=O)N[C@@H](COCc1ccccc1)CSc1ccccc1)c1ccc2c(c1)OCO2 [(3S)-3-(1,3-benzodioxol-5-yl)-3-{[({(1S)-2-(benzyloxy)-1-[(phenylthio)methyl]ethyl}amino)carbonyl]amino}propanoic acid] | 100% | 300 nM | – |
| CSCC[C@@H](CSc1ccc(NS(=O)(=O)Cc2ccccc2)cc1)NC(=O)N[C@@H](CC(=O)O)c1ccc2c(c1)OCO2 [(3S)-3-(1,3-benzodioxol-5-yl)-3-[({[(1S)-1-[({4-[(benzylsulfonyl)amino]phenyl}sulfanyl)methyl]-3-(methylsulfanyl)propyl]amino}carbonyl)amino]propanoic acid] | 100% | 300 nM | – |
| COc1ccc(CNC(=O)[C@@H](CC(C)C)NC(=O)NC(CC(=O)O)c2ccc3c(c2)OCO3)cc1 (stereo partly drawn) [3-(1,3-benzodioxol-5-yl)-3-({[((1R)-1-{[(4-methoxybenzyl)amino]carbonyl}-3-methylbutyl)amino]carbonyl}amino)propanoic acid] | 66% | 45000 nM | – |
| CCCSC[C@@H](CSc1ccccc1)NC(=O)N[C@@H](CC(=O)O)c1ccc2c(c1)OCO2 [(3S)-3-(1,3-benzodioxol-5-yl)-3-{[({(1S)-2-(phenylsulfanyl)-1-[(propylsulfanyl)methyl]ethyl}amino)carbonyl]amino}propanoic acid] | 100% | 500 nM | – |
| CCOC[C@@H](CSc1ccccc1)OC(=O)N[C@@H](CC(=O)O)c1ccc2c(c1)OCO2 [(3S)-3-(1,3-benzodioxol-5-yl)-3-{[({(1S)-2-ethoxy-1-[(phenylthio)methyl]ethyl}oxy)carbonyl]amino}propanoic acid] | 100% | 5000 nM | – |
| CSCC[C@@H](CSc1ccccc1)NC(=O)N[C@H](CSc1ccccc1)CC(=O)O [Compound 8, (3S)-3-{[({(1S)-3-(methylsulfanyl)-1-[(phenylsulfanyl)methyl]propyl}amino)carbonyl]amino}-4-(phenylsulfanyl)butanoic acid] | 100% | 4000 nM | – |
| COC(=O)NCCCC[C@@H](CS(=O)(=O)c1ccccc1)NC(=O)N[C@@H](CC(=O)O)c1ccc2c(c1)OCO2 [(9S,13S)-13-(1,3-benzodioxol-5-yl)-3,11-dioxo-9-[(phenylsulfonyl)methyl]-2-oxa-4,10,12-triazapentadecan-15-oic acid] | 20% | > 100000 nM | – |
| CCCC[C@H](NC(=O)N[C@@H](CC(=O)O)c1ccc2c(c1)OCO2)C(=O)NCc1ccc(NCc2ccc(C)s2)cc1 [Compound 41, 3(3S)-3-(1,3-benzodioxol-5-yl)-3-([((1S)-1-[(4-(5-methyl-2-thienylmethyl)aminobenzyl)amino]carbonylpentyl)amino]carbonylamino)propanoic acid] | – | – | 100 nM |
| CSC[C@@H](CSc1ccccc1)NC(=O)N[C@@H](CC(=O)O)c1ccc2c(c1)OCO2 [(3S)-3-(1,3-benzodioxol-5-yl)-3-{[({(1S)-2-(methylsulfanyl)-1-[(phenylsulfanyl)methyl]ethyl}amino)carbonyl]amino}propanoic acid] | 100% | 100 nM | – |
| CSCC[C@@H](CSc1ccccc1)NC(=S)N[C@@H](CC(=O)O)c1ccc2c(c1)OCO2 [(3S)-3-(1,3-benzodioxol-5-yl)-3-{[({(1S)-3-(methylsulfanyl)-1-[(phenylsulfanyl)methyl]propyl}amino)carbothioyl]amino}propanoic acid] | 100% | 3000 nM | – |
| CSCC[C@@H](CSc1cccc(C)c1)NC(=O)N[C@@H](CC(=O)O)c1ccc2c(c1)OCO2 [(3S)-3-(1,3-benzodioxol-5-yl)-3-[({[(1S)-1-{[(3-methylphenyl)sulfanyl]methyl}-3-(methylsulfanyl)propyl]amino}carbonyl)amino]propanoic acid] | 100% | 300 nM | – |
| Cc1ccccc1NC(=O)Nc1ccc(CNC(=O)[C@H](CC(C)C)NC(=O)NC(CC(=O)O)c2ccc3c(c2)OCO3)cc1 (stereo partly drawn) [3-(1,3-benzodioxol-5-yl)-3-{[({(1S)-3-methyl-1-[({4-[(2-toluidinocarbonyl)amino]benzyl}amino)carbonyl]butyl}amino)carbonyl]amino}propanoic acid] | 100% | 20 nM | – |
| CSCC[C@@H](COc1ccccc1)NC(=O)N[C@@H](CC(=O)O)c1ccc2c(c1)OCO2 [(3S)-3-(1,3-benzodioxol-5-yl)-3-[({[(1S)-3-(methylsulfanyl)-1-(phenoxymethyl)propyl]amino}carbonyl)amino]propanoic acid] | 100% | 20000 nM | – |
